Measurements published in EP0908457B1, “3-(1,2-benzisothiazol- and isoxazol-5-Y1)-2,4(1H,3H)-pyrimidinedione or thione and 3-(1,2-benzisothiazol- and isoxazol-5-y1)-4(3H)-pyrimidinone or thione herbicidal agents” (BASF AKTIENGESELLSCHAFT, priority 1997, dated 1999).

Tests used:
[1] = system: Cyperus serotinus, Rottb.; assay: Preemergence weed control under flooded paddy conditions, CYPSE (Flatsedge); format: in vivo; conditions: preemergence, rated three to four weeks after treatment; note: meaning of each grade not given here
[2] = system: Echinochloa oryzoides (Ard.) Fritsch.; assay: Postemergence weed control under flooded paddy conditions, ECHORC (Watergrass (Calif.)); format: in vivo; conditions: rated three to four weeks after treatment
[3] = system: Sagittaria pygmaea, L.; assay: Postemergence weed control under flooded paddy conditions, SAGPY (Arrowhead (Pygmaea)); format: in vivo; conditions: rated three to four weeks after treatment
[4] = system: Oryza sativa, (L.) Tebonnet; assay: Rice tolerance to post-transplant applications under flooded paddy conditions (Example 187), ORYSAT (Rice, Tebonnet); conditions: rated three to four weeks after treatment; for herbicidal effect rating ORYSAT: meaning of each grade not given here
[5] = system: Cyperus iria; assay: Preemergence weed control under flooded paddy conditions, CYPIR (Rice Flatsedge); format: in vivo; conditions: preemergence, flooded paddy, rated three to four weeks after treatment; note: meaning of each grade not given here
[6] = system: Monochoria vaginalis, Presl.; assay: Postemergence weed control under flooded paddy conditions, MOOVA (Monochoria); format: in vivo; conditions: rated three to four weeks after treatment
[7] = system: Echinochloa oryzoides (Ard.) Fritsch.; assay: Preemergence weed control under flooded paddy conditions, ECHORC (Watergrass (Calif.)); format: in vivo; conditions: preemergence, flooded paddy, rated three to four weeks after treatment; note: meaning of each grade not given here
[8] = system: Monochoria vaginalis, Presl.; assay: Preemergence weed control under flooded paddy conditions, MOOVA (Monochoria); format: in vivo; conditions: preemergence, flooded paddy, rated three to four weeks after treatment; note: meaning of each grade not given here
[9] = system: Cyperus iria; assay: Postemergence weed control under flooded paddy conditions, CYPIR (Rice Flatsedge); format: in vivo; conditions: rated three to four weeks after treatment
[10] = system: Sagittaria pygmaea, L.; assay: Preemergence weed control under flooded paddy conditions, SAGPY (Arrowhead (Pygmaea)); format: in vivo; conditions: preemergence, flooded paddy, rated three to four weeks after treatment; note: meaning of each grade not given here
[11] = system: Oryza sativa, (L.) Tebonnet; assay: Rice tolerance to post-transplant applications under flooded paddy conditions (Example 188), ORYSAT (Rice, Tebonnet); conditions: rated three to four weeks after treatment
[12] = system: Cyperus serotinus, Rottb.; assay: Postemergence weed control under flooded paddy conditions, CYPSE (Flatsedge); format: in vivo; conditions: rated three to four weeks after treatment

## COC(=O)COc1ccc(C)cc1-c1noc2cc(F)c(-n3c(=O)cc(C(F)(F)F)n(C)c3=O)cc12 [Example 359, Acetic acid, {{2-{5-[3,6-dihydro-3-methyl-2,6-dioxo-4-(trifluoromethyl)-1(2H)-pyrimidinyl]-6-fluoro-1,2-benzisoxazol-3-yl}-p-tolyl}oxy}-, methyl ester]
[1]; Rate 0.0320 kg/ha
  herbicidal effect rating, CYPSE: 9.0
[1]; Rate 0.0620 kg/ha
  herbicidal effect rating, CYPSE: 6.0
[1]; Rate 0.1250 kg/ha
  herbicidal effect rating, CYPSE: 9.0
[1]; Rate 0.2500 kg/ha
  herbicidal effect rating, CYPSE: 9.0
[2]; Rate 0.0320 kg/ha
  herbicidal effect rating, ECHORC: 2.0
[2]; Rate 0.0620 kg/ha
  herbicidal effect rating, ECHORC: 6.0
[2]; Rate 0.1250 kg/ha
  herbicidal effect rating, ECHORC: 6.0
[3]; Rate 0.0320 kg/ha
  herbicidal effect rating, SAGPY: 0.0
[3]; Rate 0.0620 kg/ha
  herbicidal effect rating, SAGPY: 0.0
[3]; Rate 0.1250 kg/ha
  herbicidal effect rating, SAGPY: 0.0
[4]; Rate 0.0320 kg/ha
  herbicidal effect rating ORYSAT: 6.5
[4]; Rate 0.0620 kg/ha
  herbicidal effect rating ORYSAT: 7.3
[4]; Rate 0.1250 kg/ha
  herbicidal effect rating ORYSAT: 8.8
[4]; Rate 0.2500 kg/ha
  herbicidal effect rating ORYSAT: 9.0
[4]; Rate 0.5000 kg/ha
  herbicidal effect rating ORYSAT: 9.0
[5]; Rate 0.0320 kg/ha
  herbicidal effect rating, CYPIR: 6.3
[5]; Rate 0.0620 kg/ha
  herbicidal effect rating, CYPIR: 7.5
[5]; Rate 0.1250 kg/ha
  herbicidal effect rating, CYPIR: 8.5
[5]; Rate 0.2500 kg/ha
  herbicidal effect rating, CYPIR: 9.0
[5]; Rate 0.5000 kg/ha
  herbicidal effect rating, CYPIR: 9.0
[6]; Rate 0.0320 kg/ha
  herbicidal effect rating, MOOVA: 7.0
[6]; Rate 0.0620 kg/ha
  herbicidal effect rating, MOOVA: 7.0
[6]; Rate 0.1250 kg/ha
  herbicidal effect rating, MOOVA: 9.0
[7]; Rate 0.0320 kg/ha
  herbicidal effect rating, ECHORC: 8.5
[7]; Rate 0.0620 kg/ha
  herbicidal effect rating, ECHORC: 9.0
[7]; Rate 0.1250 kg/ha
  herbicidal effect rating, ECHORC: 9.0
[7]; Rate 0.2500 kg/ha
  herbicidal effect rating, ECHORC: 9.0
[7]; Rate 0.5000 kg/ha
  herbicidal effect rating, ECHORC: 9.0
[8]; Rate 0.0320 kg/ha
  herbicidal effect rating, MOOVA: 8.8
[8]; Rate 0.0620 kg/ha
  herbicidal effect rating, MOOVA: 9.0
[8]; Rate 0.1250 kg/ha
  herbicidal effect rating, MOOVA: 9.0
[8]; Rate 0.2500 kg/ha
  herbicidal effect rating, MOOVA: 9.0
[8]; Rate 0.5000 kg/ha
  herbicidal effect rating, MOOVA: 9.0
[9]; Rate 0.0320 kg/ha
  herbicidal effect rating, CYPIR: 4.0
[9]; Rate 0.0620 kg/ha
  herbicidal effect rating, CYPIR: 7.0
[9]; Rate 0.1250 kg/ha
  herbicidal effect rating, CYPIR: 9.0
[10]; Rate 0.0320 kg/ha
  herbicidal effect rating, SAGPY: 0.0
[10]; Rate 0.0620 kg/ha
  herbicidal effect rating, SAGPY: 0.5
[10]; Rate 0.1250 kg/ha
  herbicidal effect rating, SAGPY: 1.8
[10]; Rate 0.2500 kg/ha
  herbicidal effect rating, SAGPY: 4.5
[10]; Rate 0.5000 kg/ha
  herbicidal effect rating, SAGPY: 5.0
[11]; Rate 0.0320 kg/ha
  herbicidal effect rating, ORYSAT (rice tolerance): 2.0
[11]; Rate 0.0620 kg/ha
  herbicidal effect rating, ORYSAT (rice tolerance): 3.0
[11]; Rate 0.1250 kg/ha
  herbicidal effect rating, ORYSAT (rice tolerance): 4.0
[12]; Rate 0.0320 kg/ha
  herbicidal effect rating, CYPSE: 0.0
[12]; Rate 0.0620 kg/ha
  herbicidal effect rating, CYPSE: 0.0
[12]; Rate 0.1250 kg/ha
  herbicidal effect rating, CYPSE: 0.0

## COC(=O)COc1ccc(C)cc1-c1nsc2ccc(-n3c(=O)cc(C(F)(F)F)n(C)c3=O)cc12 [Example 2, Methyl {{2-{5-[3,6-dihydro-3-methyl-4-(trifluoromethyl)-2,6-dioxo-1(2H)-pyrimidinyl]-1,2-benzisothiazol-3-yl}-p-tolyl}oxy}acetate]
[1]; 0.0313 kg/ha
  herbicidal effect rating, CYPSE: 0.0
[1]; 0.0625 kg/ha
  herbicidal effect rating, CYPSE: 0.0
[1]; 0.1250 kg/ha
  herbicidal effect rating, CYPSE: 0.0
[1]; 0.2500 kg/ha
  herbicidal effect rating, CYPSE: 0.0
[1]; 0.5000 kg/ha
  herbicidal effect rating, CYPSE: 0.0
[2]; Rate 0.0313 kg/ha
  herbicidal effect rating, ECHORC: 4.0
[2]; Rate 0.0625 kg/ha
  herbicidal effect rating, ECHORC: 4.0
[2]; Rate 0.1250 kg/ha
  herbicidal effect rating, ECHORC: 7.0
[2]; Rate 0.2500 kg/ha
  herbicidal effect rating, ECHORC: 9.0
[2]; Rate 0.5000 kg/ha
  herbicidal effect rating, ECHORC: 9.0
[3]; Rate 0.0313 kg/ha
  herbicidal effect rating, SAGPY: 0.0
[3]; Rate 0.0625 kg/ha
  herbicidal effect rating, SAGPY: 0.0
[3]; Rate 0.1250 kg/ha
  herbicidal effect rating, SAGPY: 0.0
[3]; Rate 0.2500 kg/ha
  herbicidal effect rating, SAGPY: 2.0
[3]; Rate 0.5000 kg/ha
  herbicidal effect rating, SAGPY: 4.0
[4]; 0.0313 kg/ha
  herbicidal effect rating, ORYSAT (rice tolerance): 2.0
[4]; 0.0625 kg/ha
  herbicidal effect rating, ORYSAT (rice tolerance): 3.0
[4]; 0.1250 kg/ha
  herbicidal effect rating, ORYSAT (rice tolerance): 3.0
[4]; 0.2500 kg/ha
  herbicidal effect rating, ORYSAT (rice tolerance): 5.0
[4]; 0.5000 kg/ha
  herbicidal effect rating, ORYSAT (rice tolerance): 9.0
[5]; 0.0313 kg/ha
  herbicidal effect rating, CYPIR: 8.0
[5]; 0.0625 kg/ha
  herbicidal effect rating, CYPIR: 9.0
[5]; 0.1250 kg/ha
  herbicidal effect rating, CYPIR: 9.0
[5]; 0.2500 kg/ha
  herbicidal effect rating, CYPIR: 9.0
[5]; 0.5000 kg/ha
  herbicidal effect rating, CYPIR: 9.0
[6]; Rate 0.0313 kg/ha
  herbicidal effect rating, MOOVA: 9.0
[6]; Rate 0.0625 kg/ha
  herbicidal effect rating, MOOVA: 9.0
[6]; Rate 0.1250 kg/ha
  herbicidal effect rating, MOOVA: 9.0
[6]; Rate 0.2500 kg/ha
  herbicidal effect rating, MOOVA: 9.0
[6]; Rate 0.5000 kg/ha
  herbicidal effect rating, MOOVA: 9.0
[7]; 0.0313 kg/ha
  herbicidal effect rating, ECHORC: 9.0
[7]; 0.0625 kg/ha
  herbicidal effect rating, ECHORC: 9.0
[7]; 0.1250 kg/ha
  herbicidal effect rating, ECHORC: 9.0
[7]; 0.2500 kg/ha
  herbicidal effect rating, ECHORC: 9.0
[7]; 0.5000 kg/ha
  herbicidal effect rating, ECHORC: 9.0
[8]; 0.0313 kg/ha
  herbicidal effect rating, MOOVA: 7.0
[8]; 0.0625 kg/ha
  herbicidal effect rating, MOOVA: 9.0
[8]; 0.1250 kg/ha
  herbicidal effect rating, MOOVA: 9.0
[8]; 0.2500 kg/ha
  herbicidal effect rating, MOOVA: 9.0
[8]; 0.5000 kg/ha
  herbicidal effect rating, MOOVA: 9.0
[9]; Rate 0.0313 kg/ha
  herbicidal effect rating, CYPIR: 9.0
[9]; Rate 0.0625 kg/ha
  herbicidal effect rating, CYPIR: 9.0
[9]; Rate 0.1250 kg/ha
  herbicidal effect rating, CYPIR: 9.0
[9]; Rate 0.2500 kg/ha
  herbicidal effect rating, CYPIR: 9.0
[9]; Rate 0.5000 kg/ha
  herbicidal effect rating, CYPIR: 9.0
[10]; 0.0313 kg/ha
  herbicidal effect rating, SAGPY: 0.0
[10]; 0.0625 kg/ha
  herbicidal effect rating, SAGPY: 0.0
[10]; 0.1250 kg/ha
  herbicidal effect rating, SAGPY: 2.0
[10]; 0.2500 kg/ha
  herbicidal effect rating, SAGPY: 4.0
[10]; 0.5000 kg/ha
  herbicidal effect rating, SAGPY: 9.0
[11]; Rate 0.0313 kg/ha
  herbicidal effect rating, ORYSAT (rice tolerance): 2.0
[11]; Rate 0.0625 kg/ha
  herbicidal effect rating, ORYSAT (rice tolerance): 2.0
[11]; Rate 0.1250 kg/ha
  herbicidal effect rating, ORYSAT (rice tolerance): 3.0
[11]; Rate 0.2500 kg/ha
  herbicidal effect rating, ORYSAT (rice tolerance): 7.0
[11]; Rate 0.5000 kg/ha
  herbicidal effect rating, ORYSAT (rice tolerance): 8.0
[12]; Rate 0.0313 kg/ha
  herbicidal effect rating, CYPSE: 0.0
[12]; Rate 0.0625 kg/ha
  herbicidal effect rating, CYPSE: 0.0
[12]; Rate 0.1250 kg/ha
  herbicidal effect rating, CYPSE: 0.0
[12]; Rate 0.2500 kg/ha
  herbicidal effect rating, CYPSE: 0.0
[12]; Rate 0.5000 kg/ha
  herbicidal effect rating, CYPSE: 0.0
